# US9321795B2, “Use of hydroxycinnamaldehyde glycoside derivatives for treating glomerulonephritis” (National Defense Medical Center, priority 2014, dated 2016)
# Legend:
# NF-κB p65 = NF-κB p65 activity in kidney tissues (ELISA); assay type: in vivo, mouse; conditions: LPS induced GN mice, i.p. daily 30 mg/ml, 7 weeks, FIG. 4(C)
# Description: Experiments were performed on 8-week-old female C57BL/6 mice. The mice were separated into 3 groups at 8-weeks old. One of the groups were injected intravenously with normal saline to be used as normal controls, where the pathological control group and the GN disease treatment group by the cinnamaldehyde derivative of the invention were intraperitoneally injected with […] Salmonella LPS (Sigma, USA) (Am J Physiol Renal Physiol, 296: F1088-1099, 2009; Nephron, 84: 167-176, 2000; Nephron Exp Nephrol, 112: e81-91, 2009) twice a week, continuously for 7 weeks for disease induction. Starting two days before disease induction, the GN disease treatment group was intraperitoneally injected with the cinnamaldehyde derivative of the invention at a daily dose of 30 mg/ml for continuous 7 weeks, while the pathological control group was given placebo daily through intraperitoneal injection. Urine samples were collected in metabolic cages every week. Mice were sacrificed on 7th week after the disease induction. […]
# Renal cortical tissues were taken and extracted for nuclear protein with nucleus extraction kit (Active Motif, Japan), and nuclear proteins were taken to detect NF-κB p65 activity after protein quantitation. […] Lastly, ELISA reader (Bio-Tek, USA) was used to detect OD 450 nm absorption and the values were converted to sample concentration according to the standard curve.
# glomeruli of GN mice = assay: Renal histopathology (H&E) in LPS induced mouse GN model; assay type: in vivo; conditions: i.p. daily 30 mg/ml, 7 weeks, FIG. 2
# Description: (§1) Experiments were performed on 8-week-old female C57BL/6 mice. The mice were separated into 3 groups at 8-weeks old. One of the groups were injected intravenously with normal saline to be used as normal controls, where the pathological control group and the GN disease treatment group by the cinnamaldehyde derivative of the invention were intraperitoneally injected with […] Salmonella LPS (Sigma, USA) (Am J Physiol Renal Physiol, 296: F1088-1099, 2009; Nephron, 84: 167-176, 2000; Nephron Exp Nephrol, 112: e81-91, 2009) twice a week, continuously for 7 weeks for disease induction. Starting two days before disease induction, the GN disease treatment group was intraperitoneally injected with the cinnamaldehyde derivative of the invention at a daily dose of 30 mg/ml for continuous 7 weeks, while the pathological control group was given placebo daily through intraperitoneal injection. Urine samples were collected in metabolic cages every week. Mice were sacrificed on 7th week after the disease induction. Blood, kidneys, spleen and liver were collected and stored properly for further analysis.
# To evaluate the renal histological changes, 10% formalin was used to fix the tissues, and sections were prepared and stained with hematoxylin and eosin (H&E) and observed under microscope. Changes in the tissues were analyzed by semi-quantitation. Items evaluated include: (1) cell density changes in glomerulus; (2) glomerulus fibrosis; (3) cell necrosis in glomerulus; (4) formation of crescent of glomerulonephritis. According to the ratio of glomeruli having pathological changes, 0 to 4 points were given as scores. 25 glomeruli were measured for each group and the sum of the points represents the renal histological changes. Secondly, mesenchymal and renal tubular atrophy, erythrocyte and protein granule sedimentation in renal tubules and mesenchymal inflammation were also evaluated.
# T cell (CD3) = assay: Immunohistochemistry of kidney, T cell (CD3) infiltration; assay type: in vivo, mouse; conditions: LPS induced GN mice; i.p. daily 30 mg/ml, 7 weeks; IHC; FIG. 3(A),(B),(C)
# Description: as §1
# (§2) In addition, to carry out immunohistochemistry (IHC) analysis, tissue fixation, paraffin-embedding, sectioning, rehydration and antigen retrieval were done with routine procedures, and 3% H2O2 was used to remove endogenous peroxidase. […]
# spleen cells = assay: Flow cytometry of T cell and B cell activation in spleen cells; assay type: in vivo, mouse; conditions: LPS induced GN mice, i.p. daily 30 mg/ml, 7 weeks
# Description: as §1
# Mice spleens were taken out, grinded, rinsed and centrifuged to obtain spleen cells. To carry out mice inflammation reaction analysis, 1×10^6 cells were taken and reacted with anti-mouse CD3-FITC antibody, anti-mouse […] antibody anti-mouse CD8-PE, anti-mouse CD19-FITC antibody and anti-mouse CD69-PE antibody (all purchased from BD Pharmingen, CA) respectively in the dark under room temperature for 30 minutes, and analyzed with flow cytometry (Beckton Dickinson, Calif.).
# TLR4 = assay: Reverse-transcription PCR, TLR4 mRNA; assay type: in vivo, mouse; conditions: LPS induced GN mice, i.p. daily 30 mg/ml, 7 weeks, semi-quantitated, FIG. 6
# Description: as §1
# (§3) Reverse-transcription PCR was used to evaluate and semi-quantitate TLR4 and its following adaptin Myd88 mRNA expression. […]
# IL-1β [1] = assay: Real-time PCR of kidney tissue, IL-1β; assay type: in vivo, mouse; conditions: LPS induced GN mice, i.p. daily 30 mg/ml, 7 weeks, FIG. 5(A)-(D)
# Description: as §1
# (§4) RNA was extracted from kidney tissues, reverse transcribed to cDNA and Real-Time PCR (Applied Biosystems) was carried out. Items determined include: IL-6, NLRP3, caspase-1, IL-1β and IL-18, where GAPDH gene expression levels were used to carry out the internal correction.
# MyD88 = assay: Reverse-transcription PCR, MyD88 mRNA; assay type: in vivo, mouse; conditions: LPS induced GN mice, i.p. daily 30 mg/ml, 7 weeks, semi-quantitated, FIG. 6
# Description: as §1, §3
# IL-6 = IL-6 protein in kidney tissue (ELISA); assay type: in vivo, mouse; conditions: LPS induced GN mice, i.p. daily 30 mg/ml, 7 weeks, FIG. 4(D)
# Description: as §1
# (§5) ELISA reader (Bio-Tek, USA) was used to detect OD 450 nm absorption and the values were converted to sample concentration according to the standard curve.
# NLRP3 = assay: Real-time PCR of kidney tissue, NLRP3; assay type: in vivo, mouse; conditions: LPS induced GN mice, i.p. daily 30 mg/ml, 7 weeks, FIG. 5(A)-(D)
# Description: as §1, §4
# IL-18 = assay: Real-time PCR of kidney tissue, IL-18; assay type: in vivo, mouse; conditions: LPS induced GN mice, i.p. daily 30 mg/ml, 7 weeks, FIG. 5(A)-(D)
# Description: as §1, §4
# IL-1β [2] = assay: Mature IL-1β in renal cortical protein (ELISA); assay type: in vivo, mouse; conditions: LPS induced GN mice, i.p. daily 30 mg/ml, 7 weeks, FIG. 5(H)
# Description: as §1, §5
# [3] = Drug safety by weekly weight change of mice; assay type: in vivo, mouse; conditions: LPS induced GN mice, i.p. daily 30 mg/ml, 7 weeks; for weight change of mice: recorded each week, compared to normal control group, FIG. 7
# Description: as §1
# During the experiment processes, the drug safety of the cinnamaldehyde derivative was assessed through recording the weight change of mice each week.
# [4] = test system: LPS induced mouse GN model; assay: Urine protein and serum BUN (renal function) in LPS induced mouse GN model; assay type: in vivo; conditions: LPS induced GN C57BL/6 mice
# Description: as §1
# Serum blood urea nitrogen (BUN) and proteinuria were used to assess mice kidney function. Serum blood urea nitrogen (BUN) measurement of serum collected through the eye socket was done through a tester (Fuji DRI-CHEM 3000) with a test specimen (Fuju DRI-CHEM SLIDE). […]
# caspase-1 [5] = assay: Real-time PCR of kidney tissue, caspase-1; assay type: in vivo, mouse; conditions: LPS induced GN mice, i.p. daily 30 mg/ml, 7 weeks, FIG. 5(A)-(D)
# Description: as §1, §4
# caspase-1 [6] = assay: Western blot of renal cortical proteins, caspase-1; assay type: in vivo, mouse; conditions: LPS induced GN mice, i.p. daily 30 mg/ml, 7 weeks
# Description: as §1
# Renal cortical tissues were cut to pieces and placed in buffer, and grinding with sonication was used to lyse the cells. After centrifugation, the supernatant was preserved, and protein concentration was measured with protein concentration analyzing kit (BCA protein Assay Kit, PIERCE). […]
# macrophage (F4/80) = assay: Immunohistochemistry of kidney, macrophage marker F4/80; assay type: in vivo, mouse; conditions: LPS induced GN mice; i.p. daily 30 mg/ml, 7 weeks; IHC; vs GN disease group; FIG. 3(A),(D),(E)
# Description: as §1, §2
# NF-κB = assay: Immunohistochemistry of kidney, NF-κB expression; assay type: in vivo, mouse; conditions: LPS induced GN mice; i.p. daily 30 mg/ml, 7 weeks; IHC; FIG. 4(A),(B)
# Description: as §1, §2
structure (smiles),measurement,setting,value
"O=CC=Cc1ccc(OC2OC(CO)C(O)C(O)C2O)cc1 (centres unmarked) [cinnamaldehyde derivative, 4-hydroxyphenylacrylaldehyde glycoside]",NF-κB p65 content (activation) in renal cortical proteins,NF-κB p65,lower its activation level
same,glomerular fibrosis,glomeruli of GN mice,no fibrosis condition occurrence was observed
same,glomerular proliferation,glomeruli of GN mice,significantly ameliorated
same,lymphocyte infiltration,glomeruli of GN mice,reduced
same,T lymphocyte (CD3) infiltration in glomeruli,T cell (CD3),significantly lowered
same,Helper T cells (CD4+) activation ratio in spleen cells,"spleen cells; ***p<0.005, FIG. 3(G)",significantly ameliorated
same,T cell (CD3+) activation in spleen cells,spleen cells; FIG. 3(F),showed the tendency of reduction
same,B cell (CD19+) activation in spleen cells,spleen cells; FIG. 3(H),no significant difference
same,TLR4 mRNA expression level,TLR4,reduced
same,IL-1β gene expression level in kidney tissue,IL-1β [1],significantly reduced
same,MyD88 mRNA expression level,MyD88,reduced
same,IL-6 protein expression level in kidney tissue,IL-6,reduce IL-6 expression
same,NLRP3 gene expression level in kidney tissue,NLRP3,significantly reduced
same,IL-18 gene expression level in kidney tissue,IL-18,significantly reduced
same,amount of mature IL-1β,IL-1β [2],significantly decreased
same,amount of mature IL-1β,IL-1β [2]; listed as hydroxycinammaldehde glycoside derivate,significantly increased in GN disease group compared to hydroxycinammaldehde glycoside derivate treated GN group
same,side-effects in animals,[3]; judged from weight change,did not cause obvious side-effects
same,weight change of mice,[3]; listed as hydroxycinammaldehde glycoside derivative,does not result in weight loss
same,weight change of mice,[3]; listed as hydroxycinnamaldehyde derivative,stable increase in their bodyweight
same,serum blood urea nitrogen (BUN),"[4]; i.p. daily 30 mg/ml for 7 weeks, vs pathological control group, FIG. 1(B)",significantly lower
same,urine protein content (proteinuria),"[4]; i.p. daily dose of 30 mg/ml for 7 weeks, vs disease group, *p<0.05, FIG. 1(A)",reduce proteinuria
same,caspase-1 gene expression level in kidney tissue,caspase-1 [5],significantly reduced
same,matured caspase-1 expression level,caspase-1 [6]; FIG. 5(E),higher in the disease group than in the cinnamaldehyde derivative treatment group
same,pro-caspase-1 expression level,caspase-1 [6]; FIG. 5(E)-(G),reduced
same,macrophage (F4/80) staining in kidney,macrophage (F4/80),significantly less
same,NF-κB expression in kidney tissue,NF-κB,reduce its expression level
